Measurements taken from patent US10654788B2, “Method for synthesizing novel compounds derived from 3-hydroxy-cyclopentyl acetic acid” (L'OREAL, priority 2015, dated 2020).

How the values were obtained:
TGM3 transcripts = experiment: Expression of TGM3 transcripts in keratinocytes (RT-qPCR); type: cell-based; settings: human epidermal keratinocytes
Protocol: (§1) The influence of compound 5, in particular obtained according to the preparation process described in example 1 above, on the epidermal renewal and the barrier effect of the skin was evaluated in vitro by measuring the expression of the TGM1 and TGM3 transcripts in keratinocytes.
(§2) Human epidermal keratinocytes were incubated for 24 hours in the presence or absence (control) of the compound to be tested. At the end of the incubation, the total RNAs were extracted and then quantified. The expression of the TGM1 and TGM3 transcripts was then measured by means of a 2-step RT-qPCR method by means of a LightCycler® 480 system and according to the SYBR® Green (Qiagen) incorporation technique. The expression of these transcripts was standardized relative to the expression of 2 housekeeping genes, RPL13A and GAPDH. The experiment was reproduced 3 times (N=3).
(§3) The results are expressed as fold change (fc) relative to the control.

TGM1 transcripts = experiment: Expression of TGM1 transcripts in keratinocytes (RT-qPCR); type: cell-based; settings: human epidermal keratinocytes
Protocol: as §1, §2, §3

[1] = 24 hours incubation, 100 μm, standardized to RPL13A and GAPDH, N=3

SMILES: CCCCCCCCC1C(O)CCC1CC(=O)O (stereo not shown) [Compound 5]
- expression of the TGM3 transcripts (class in words) (TGM3 transcripts; 24 hours): moderately stimulated
- TGM3 transcript expression, fold change (fc) relative to the control (TGM3 transcripts; [1]): 1.8 fc
- expression of the TGM1 transcripts (class in words) (TGM1 transcripts; 24 hours): moderately stimulated
- TGM1 transcript expression, fold change (fc) relative to the control (TGM1 transcripts; [1]): 1.9 fc
